Reference: patent publication US20150218638A1, “METHODS FOR ASSESSMENT OF PEPTIDE-SPECIFIC IMMUNITY” (priority 2012, published 2015)

Tested on: heparinized whole blood
Test: Ex vivo induction of immune-function-related mRNA in heparinized whole blood, real time PCR
Assay type: cell-based
Conditions: 37° C., 4 hours, vs PBS

In the case of leucoagglutinin [PHA-L], the “CCL4 mRNA induction” value is reported as “induced”, the “CTLA4 mRNA induction” value is reported as “induced” and the “CXCL3 mRNA induction” value is reported as “induced”. The “CXCL10 mRNA induction” value was “induced”, the “GMCSF mRNA induction” value was “induced” and the “IFNG mRNA induction” value was “induced”. For the same substance, the “IL4 mRNA induction” value was “induced”, the “IL10 mRNA induction” value was “induced” and the “TNFSF2 mRNA induction” value was “induced”. The “beta actin (ACTB) mRNA induction (control housekeeping gene)” value was “not induced”.
